According to patent US6946473B2, “Preparation and use of acetylenic ortho-sulfonamido and phosphinic acid amido bicyclic heteroaryl hydroxamic acids as TACE inhibitors” (priority 1999, dated 2005):

Assays:
MMP-1 = target: T1, MMP-1 (Homo sapiens, UniProt P03956); experiment: MMP-1 inhibition (thiopeptide or fluorescent peptide substrate); type: biochemical
T1 sequence (P03956 100-469): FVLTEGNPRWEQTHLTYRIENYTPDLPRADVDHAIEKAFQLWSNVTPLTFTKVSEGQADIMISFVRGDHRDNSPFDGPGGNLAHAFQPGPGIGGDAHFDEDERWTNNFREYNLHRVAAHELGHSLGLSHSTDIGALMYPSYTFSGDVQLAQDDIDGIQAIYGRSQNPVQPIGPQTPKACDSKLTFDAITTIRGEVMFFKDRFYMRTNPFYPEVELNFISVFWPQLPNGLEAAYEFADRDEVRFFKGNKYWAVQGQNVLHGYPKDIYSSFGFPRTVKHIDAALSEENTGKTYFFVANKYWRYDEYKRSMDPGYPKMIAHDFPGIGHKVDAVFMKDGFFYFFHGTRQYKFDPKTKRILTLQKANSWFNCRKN

melting point [°C] | SMILES | IC50 (MMP-1) [nM]
189 to 192 | CC#CCOc1ccc(S(=O)(=O)N(C)c2c(C(=O)NO)cnc3c2c(C)nn3C)cc1 [Example 7, 4-[(4-But-2-ynyloxy-benzenesulfonyl)-methyl-amino]-1,3-dimethyl-1H-pyrazolo[3,4-b]pyridine-5-carboxylic acid hydroxyamide] | –
– | CC#CCOc1ccc(S(=O)(=O)N(C)c2c(C(=O)NO)cnc3onc(C)c23)cc1 [Example 9, 4-[(4-But-2-ynyloxy-benzenesulfonyl)-methyl-amino]-3-methyl-isoxazolo[5,4-b]pyridine-5-carboxylic acid hydroxyamide] | 1910
183 to 184 | CC#CCOc1ccc(S(=O)(=O)N(C)c2c(C(=O)NO)cnc3snc(C)c23)cc1 [Example 13, 4-[(4-But-2-ynyloxy-benzenesulfonyl)-methyl-amino]-3-methyl-isothiazolo[5,4-b]pyridine-5-carboxylic acid hydroxyamide] | –
